Results: PMC9100920, “Crosstalk between β2- and α2-Adrenergic Receptors in the Regulation of B16F10 Melanoma Cell Proliferation” (International Journal of Molecular Sciences, 2022)
Like-named read-outs stand apart in the source and are kept apart here.

Target: T1, β2-AR (Mus musculus, UniProt P18762)
T1 construct: gene Adrb2
Assay: GloSensor cAMP concentration-response in B16F10 cells (endogenous receptor), agonist
Assay type: cell-based

T1 sequence (P18762 whole entry): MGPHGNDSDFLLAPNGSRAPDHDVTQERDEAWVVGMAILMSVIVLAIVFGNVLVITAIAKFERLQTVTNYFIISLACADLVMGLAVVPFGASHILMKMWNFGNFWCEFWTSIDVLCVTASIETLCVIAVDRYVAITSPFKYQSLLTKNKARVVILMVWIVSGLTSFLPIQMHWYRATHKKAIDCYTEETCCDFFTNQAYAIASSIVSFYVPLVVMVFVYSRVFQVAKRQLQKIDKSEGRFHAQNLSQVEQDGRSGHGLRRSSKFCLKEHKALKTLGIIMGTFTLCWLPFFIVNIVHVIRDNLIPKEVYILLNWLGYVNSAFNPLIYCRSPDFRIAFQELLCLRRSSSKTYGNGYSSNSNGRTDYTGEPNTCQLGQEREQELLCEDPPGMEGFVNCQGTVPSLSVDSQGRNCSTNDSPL

EC50 (read-out: EC50) [nM]	SMILES	EC50 [nM]
–	CNC[C@H](O)c1ccc(O)c(O)c1 [EPI, epinephrine]	45
284	NC[C@H](O)c1ccc(O)c(O)c1 [NE, norepinephrine]	–
